{"source": "patent US6846845B2", "about": "“Heat shock protein inducer” (Eisai Co., Ltd., priority 2002, dated 2005)", "test": "Observation of abnormalities (side-effects) during oral administration", "type": "in vivo, rat", "details": "rats, oral 50, 100, 200 and 400 mg/kg", "description": "An emulsion of 100% by weight of geranylgeranylacetone (GGA) with 5% by weight of gum arabic and 0.008% by weight of tocopherol was given orally to the rats described above. The oral dosages were 50 mg/kg, 100 mg/kg, 200 mg/kg and 400 mg/kg (GGA groups). […] The vehicle was administered orally to the Control Group."}
{"compound": "CC(=O)CCC=C(C)CCC=C(C)CCC=C(C)CCC=C(C)C", "note": "[GGA, 6, 10, 14, 18-tetramethyl-5,9, 13, 17-nonadecatetraen-2-one]", "values": [{"measurement": "abnormalities (side-effects) during administration", "value": "No particular abnormalities (side-effects) were observed"}]}
